# Reference: the supplement of paper PMC6045584
# ± gives the standard deviation of the averaged measurements.
# Assays:
# [1] = compound: C=CCn1c(=O)c2cnc(Nc3ccc(N4CCN(C)CC4)cc3)nc2n1-c1cccc(C(C)(C)O)n1 [MK-1775]; experiment: surviving fraction relative to DMSO-only wells; higher = less growth inhibition; details: exposure time: 5 days
# Outline: (§1)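 Surviving fraction is CellTiter-Glo luminescence divided by the median of wells given DMSO only. For this, log-phase tumour cell lines went into 384-well plates at 250–500 cells per well and, 24 hours later, into five days of continuous inhibitor exposure at 0.5, 1, 5, 10, 50, 100, 500 and 1000 nM. Lines were screened three times and retained only if replicate Pearson r >0.7 and median Z' >0.3.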
# [2] = compound: CC/C(=C(\c1ccc(O)cc1)c1ccc(OCCN(C)C)cc1)c1ccccc1 [AFIMOXIFENE]; experiment: as above; details: exposure time: 5 days
# Outline: as §1
Test System,surviving fraction ([1]; 0.5 nM),surviving fraction ([1]; 1 nM),surviving fraction ([1]; 5 nM),surviving fraction ([1]; 10 nM),surviving fraction ([1]; 50 nM),surviving fraction ([1]; 100 nM),surviving fraction ([1]; 500 nM),surviving fraction ([1]; 1000 nM),surviving fraction ([2]; 0.5 nM),surviving fraction ([2]; 1 nM),surviving fraction ([2]; 5 nM),surviving fraction ([2]; 10 nM),surviving fraction ([2]; 50 nM),surviving fraction ([2]; 100 nM),surviving fraction ([2]; 500 nM),surviving fraction ([2]; 1000 nM)
NCIH441 LUNG,1.11 ± 0.085,1.04 ± 0.031,1.03 ± 0.029,0.986 ± 0.049,0.944 ± 0.065,0.794 ± 0.044,0.428 ± 0.057,0.369 ± 0.044,1.06 ± 0.11,1.07 ± 0.12,1.04 ± 0.11,1.12 ± 0.12,1.08 ± 0.11,1.14 ± 0.024,1.23 ± 0.03,1.03 ± 0.13
HOS BONE,1.02 ± 0.017,1.02 ± 0.011,1.05 ± 0.039,1.03 ± 0.027,1.027 ± 0.0056,0.98 ± 0.028,0.15 ± 0.019,0.065 ± 0.0027,1.02 ± 0.013,1.03 ± 0.016,1.06 ± 0.012,1.03 ± 0.013,1.12 ± 0.014,1.08 ± 0.031,1.05 ± 0.024,0.974 ± 0.0061
SAOS2 BONE,1.1 ± 0.019,1.01 ± 0.057,1.05 ± 0.091,1.07 ± 0.055,0.887 ± 0.033,0.637 ± 0.027,0.176 ± 0.024,0.06 ± 0.0087,1.18 ± 0.064,1.14 ± 0.068,1.23 ± 0.051,1.18 ± 0.052,1.21 ± 0.034,1.2 ± 0.16,1.12 ± 0.14,0.985 ± 0.042
DU4475 BREAST,1.1 ± 0.26,1.15 ± 0.088,1.01 ± 0.068,0.889 ± 0.059,0.686 ± 0.28,0.554 ± 0.23,0.102 ± 0.034,0.037 ± 0.0056,0.958 ± 0.1,0.963 ± 0.1,0.964 ± 0.053,0.903 ± 0.057,0.825 ± 0.017,0.717 ± 0.031,0.872 ± 0.17,0.651 ± 0.11
CAL120 BREAST,0.9598 ± 0.0037,0.944 ± 0.011,0.985 ± 0.026,0.9663 ± 0.0029,0.902 ± 0.016,0.783 ± 0.027,0.2 ± 0.015,0.12 ± 0.018,1 ± 0.031,0.972 ± 0.017,1.02 ± 0.074,1 ± 0.044,1.04 ± 0.041,0.994 ± 0.045,0.999 ± 0.031,0.948 ± 0.027
MDAMB157 BREAST,0.835 ± 0.1,0.95 ± 0.075,0.94 ± 0.075,0.966 ± 0.096,0.522 ± 0.045,0.278 ± 0.067,0.0617 ± 0.015,0.0613 ± 0.0072,1.04 ± 0.05,1.01 ± 0.062,1.04 ± 0.14,1.02 ± 0.072,1.06 ± 0.022,1.01 ± 0.014,0.942 ± 0.059,0.989 ± 0.12
SG43 HEADNECK,1.22 ± 0.14,1.01 ± 0.11,1.02 ± 0.084,0.823 ± 0.063,0.906 ± 0.072,0.911 ± 0.06,0.783 ± 0.14,0.549 ± 0.14,0.934 ± 0.082,1.06 ± 0.26,1.14 ± 0.34,0.825 ± 0.14,0.903 ± 0.016,1 ± 0.14,1.16 ± 0.12,0.927 ± 0.13
MDAMB231 BREAST,1.01 ± 0.034,1 ± 0.037,1 ± 0.026,1 ± 0.04,1.01 ± 0.043,0.778 ± 0.028,0.155 ± 0.0079,0.146 ± 0.0047,0.987 ± 0.017,1.01 ± 0.032,1.01 ± 0.045,1.01 ± 0.023,1.02 ± 0.024,1.02 ± 0.018,1.01 ± 0.024,0.955 ± 0.035
BT549 BREAST,1.15 ± 0.1,1.11 ± 0.13,1.09 ± 0.089,1.04 ± 0.089,0.783 ± 0.038,0.427 ± 0.011,0.0453 ± 0.0057,0.0453 ± 0.0032,0.924 ± 0.072,1.01 ± 0.1,1.01 ± 0.12,0.926 ± 0.082,0.93 ± 0.046,1.04 ± 0.013,1.07 ± 0.14,0.865 ± 0.052
VP229 BREAST,1.13 ± 0.14,1.01 ± 0.044,1.01 ± 0.056,1.07 ± 0.063,1.02 ± 0.034,0.754 ± 0.093,0.41 ± 0.056,0.261 ± 0.013,1.25 ± 0.37,1.2 ± 0.13,1.09 ± 0.08,1.16 ± 0.13,1.14 ± 0.07,1.16 ± 0.061,0.989 ± 0.21,1 ± 0.13
